The record followed here is PubChem BioAssay (NCI).

What all share (test): NCI anticancer screen, dose series, 48 h
Assay [1] has as its system NCI-H23 lung.
The subject of assay [2] is LOX IMVI melanoma.
Assay [3] concerns HCC-2998 colon.
Assay [4] deals with SK-MEL-2 melanoma.
For assay [5], the system named is DU-145 prostate.
In assay [6] the test system is NCI-H460 lung.
The subject of assay [7] is HCT-15 colon.
For assay [8], the system named is SN12C renal.
Assay [9] deals with OVCAR-4 ovarian.
Assay [10] concerns SNB-19 CNS.
Assay [11] deals with MDA-MB-435.
Assay [12] concerns OVCAR-5 ovarian.
Assay [13] relates to HL-60(TB) leukemia.

Each structure is given as a SMILES string.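 Following 48 hours of exposure in 96-well plates, responses at five concentrations were used to interpolate endpoints linearly. Definition used: TGI = concentration required for complete inhibition of growth.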

Take `CC1CN=C(c2ccc(CN3CCC(CCCC4CCN(Cc5ccc(C6=NCC(C)N6)cc5)CC4)CC3)cc2)N1` (configuration not stated): the TGI in [1] is greater than 100 µM; in assay [2] it was greater than 100 µM; in [3], 28.7 µM; in assay [4] it was 52.3 µM; in assay [5], greater than 100 µM; in [6], 36.8 µM. The TGI in [7] is greater than 100 µM; in assay [8], greater than 100 µM; in [9], 57.1 µM; in [10], 71.5 µM; in [11], 36.7 µM; in [12] it was 63 µM. This compound registered a TGI in [13] greater than 100 µM.
Regarding `Cc1ccc(C)c2c1n1c(=O)n(C)c(=O)n21`, the TGI in assay [1], in assay [2], in [3], in assay [4], in assay [5] and in [6] was greater than 100 µM in each case. Besides, the TGI in assay [7], in assay [8], in assay [9], in assay [10], in assay [11] and in assay [12] was greater than 100 µM throughout. This compound also had a TGI in assay [13] greater than 100 µM.
On to `CC(C)(C)OC(=O)NNCC(O)COc1ccccc1` (configuration not stated), for which the TGI in assay [1], in assay [2], in [3], in assay [4], in assay [5] and in assay [6] was greater than 100 µM each time. For the same compound, the TGI in assay [7], in assay [8], in assay [9], in [10], in assay [11] and in assay [12] was greater than 100 µM each time. In assay [13], this compound showed a TGI greater than 100 µM.
As for `OCC(S)CS.[Bi]` (configuration not stated), the TGI in [1] was 52.2 µM; in [2], greater than 100 µM; in assay [3], 27.5 µM; in [4], 30 µM; in assay [5], 68.5 µM; in [6], greater than 100 µM. In addition, the TGI in assay [7] came out at 50.7 µM; in assay [8], 37.9 µM; in assay [9] it was 69.2 µM; in assay [10], 37.3 µM; in assay [11], 35.6 µM; in [12], 42.5 µM. Besides, the TGI in assay [13] was determined as 46.4 µM.
As for `O=C1C=CC(=O)c2c(O)c(N(CCCl)CCCl)c(Cl)c(O)c21`, the TGI was greater than 8.05 µM in [1]; 6.25 µM in [2]; greater than 10 µM in [3]; greater than 7.91 µM in assay [4]; greater than 10 µM in assay [5]; greater than 10 µM in assay [6]. Also, the TGI in assay [7] was greater than 8.58 µM; in assay [8], greater than 7.71 µM; in assay [9] it was 6.24 µM; in assay [10], greater than 10 µM; in assay [11], 5.83 µM; in [12], greater than 9.1 µM. Moreover, in assay [13], the TGI was greater than 10 µM.
For `COc1ccc(/N=N/C(=NNC(=O)c2ccc(C)cc2)c2ccc(N(C)C)cc2)cc1`, the TGI in assay [1] was greater than 100 µM; in assay [2], greater than 100 µM; in assay [3], 98.4 µM; in assay [4], greater than 100 µM; in assay [5], greater than 72.7 µM; in assay [6], greater than 100 µM. For the same compound, the TGI is greater than 100 µM in assay [7]; greater than 100 µM in [8]; greater than 100 µM in assay [9]; greater than 100 µM in [10]; 62.7 µM in assay [11]; greater than 100 µM in assay [12]. Further, the TGI in assay [13] was greater than 67.7 µM.
For the compound `c1ccc(OCc2nnc(CCCCCCCCc3nnc(COc4ccccc4)o3)o2)cc1`, the TGI in assay [1], in assay [2], in assay [3], in assay [4], in [5] and in assay [6] was greater than 100 µM throughout. The TGI in assay [7], in assay [8], in assay [9], in [10], in assay [11] and in assay [12] was greater than 100 µM in each case. In assay [13], this compound displayed a TGI greater than 100 µM.
In the case of `Fc1ccc2c(c1)nc1n2C(c2c(F)cccc2F)SC1` (configuration not stated), the TGI in assay [1], in assay [2], in assay [3], in assay [4], in assay [5] and in [6] was greater than 100 µM in each case. Moreover, the TGI in assay [7], in assay [8], in [9], in assay [10], in assay [11] and in assay [12] was greater than 100 µM each time. The compound further returned a TGI in assay [13] of 70 µM.
`COc1ccc2c(c1)[nH]c1c3ccc(OC)cc3oc(=O)c21`: the TGI in assay [1], in [2], in assay [3], in assay [4], in [5] and in [6] was greater than 100 µM each time. Moreover, the TGI in [7], in assay [8], in [9], in [10], in assay [11] and in assay [12] was greater than 100 µM in each case. Further, the TGI in [13] was greater than 100 µM.
